Test results from publication PMC12751025, “α‑Aminoboronic Acid Moieties in Boro Dipeptides Modulate Proteasome Subunit Selectivity and Provide Access to Compounds with Potent Anticancer and Anti-Inflammatory Activity” (Journal of Medicinal Chemistry, 2025).
Values joined by “and” are separate entries in the source; they are usually repeats but may differ in a detail not shown here. Equal values may be shown once. Read-outs that look alike come from different tables or passages of the source.

How the values were obtained:
β5i subunit of human iCP = β5i subunit of human iCP (Homo sapiens, UniProt P20618+P28062); test: IC50 determination with fluorogenic substrate Ac-ANW-AMC; conditions: for IC50: IC50 β5i
Protocol: (§1) The measurements of the residual activity of control compounds were carried out at final compound concentrations of 1 μM in the assay buffer (50 mM Tris-HCl, 0.5 mM ethylenediaminetetraacetic acid (EDTA), pH 7.4). Stock solutions of the compounds were prepared in DMSO. To the 35 μL of solution of the compound in the buffer, 35 μL of 0.4 nM human iCP (South Bay Bio, San Jose, CA, USA) or human cCP (Boston Biochem, Inc., Cambridge, MA, USA) was added. For assays evaluating the activity of β2c and β2i, the buffer was modified by adding the proteasomal activator PA28β (Boston Biochem, Inc., Cambridge, MA, USA) at a final concentration of 6 nM. […] The substrates used were acetyl-Nle-Pro-Nle-Asp-7-amino-4-methylcoumarin (Ac-nLPnLD-AMC, Bachem, Bubendorf, Switzerland) for β1c, acetyl-Pro-Ala-Leu-7-amino-4-methylcoumarin (Ac-PAL-AMC, Boston Biochem, Inc., Cambridge, MA, USA) for β1i, acetyl-Arg-Leu-Arg-7-amino-4-methylcoumarin (Ac-RLR-AMC, Bachem, Bubendorf, Switzerland) for β2c and β2i, acetyl-Trp-Leu-Ala-7-amino-4-methylcoumarin (Ac-WLA-AMC, Bachem, Bubendorf, Switzerland) for β5c, and acetyl-Ala-Asn-Trp-7-amino-4-methylcoumarin (Ac-ANW-AMC, Bachem, Bubendorf, Switzerland) for β5i. Progress of the reaction was measured using a BioTek Synergy HT microplate reader, monitoring fluorescence at 460 nm (excitation at 360 nm) for 60 min at 37 °C. The initial linear ranges were used to calculate the reaction velocity and determine the residual activity.
(§2) The final assay mixtures contained 0.4 nM human iCP or cCP in assay buffer (50 mM Tris-HCl, 0.5 mM EDTA, pH 7.4, addition of PA28β for β2c and β2i subunits). […] After incubation at 37 °C for 30 min, the reaction was initiated by the addition of the substrate Ac-nLPnLD-AMC for β1c, Ac-PAL-AMC for β1i, Ac-RLR-AMC for β2c and β2i, Ac-WLA-AMC for β5c, and Ac-ANW-AMC for β5i. Fluorescence was monitored at 460 nm (excitation at 360 nm) for 60 min at 37 °C. The reaction progress was recorded and the initial linear phases were used to determine the velocity. The IC50 values were calculated using GraphPad Prism software (GraphPad Software, San Diego, CA, USA), and the results represent the mean values of at least three independent determinations.

β5c subunit of human cCP = target: T1, β5c subunit of human cCP (Homo sapiens, UniProt P20618+P28074); test: IC50 determination with fluorogenic substrate Ac-WLA-AMC; type: biochemical
T1 construct: purchased Boston Biochem, Inc
Protocol: as §1, §2

[1] = Solubility remark (exclusion from cell-based assays); type: physicochemical; conditions: reason for not using in cell-based assays
β1c subunit of human cCP = target: T2, β1c subunit of human cCP (Homo sapiens, UniProt P28072+Q99436); test: IC50 determination with subunit-specific fluorogenic substrate Ac-nLPnLD-AMC; type: biochemical
T2 construct: purchased Boston Biochem, Inc
Protocol: as §1, §2

β2i subunit of human iCP = β2i subunit of human iCP (Homo sapiens, UniProt P40306+P49720); test: IC50 determination with fluorogenic substrate Ac-RLR-AMC (PA28β added)
Protocol: as §1, §2

[2] = tested on: all subunits of the human cCP and iCP; test: Subunit inhibition profile and preference across cCP and iCP subunits; type: biochemical; conditions: for fold lower potency on the cCP counterparts of β1i and β5i: β1c, β5c vs β1i
Protocol: as §2

β2c subunit of human cCP = target: T3, β2c subunit of human cCP (Homo sapiens, UniProt P49720+Q99436); test: IC50 determination with fluorogenic substrate Ac-RLR-AMC (PA28β added); type: biochemical
T3 construct: purchased Boston Biochem, Inc
Protocol: Stock solutions of the compounds were prepared in DMSO. To the 35 μL of solution of the compound in the buffer, 35 μL of 0.4 nM human iCP (South Bay Bio, San Jose, CA, USA) or human cCP (Boston Biochem, Inc., Cambridge, MA, USA) was added. For assays evaluating the activity of β2c and β2i, the buffer was modified by adding the proteasomal activator PA28β (Boston Biochem, Inc., Cambridge, MA, USA) at a final concentration of 6 nM. […] The substrates used were acetyl-Nle-Pro-Nle-Asp-7-amino-4-methylcoumarin (Ac-nLPnLD-AMC, Bachem, Bubendorf, Switzerland) for β1c, acetyl-Pro-Ala-Leu-7-amino-4-methylcoumarin (Ac-PAL-AMC, Boston Biochem, Inc., Cambridge, MA, USA) for β1i, acetyl-Arg-Leu-Arg-7-amino-4-methylcoumarin (Ac-RLR-AMC, Bachem, Bubendorf, Switzerland) for β2c and β2i, acetyl-Trp-Leu-Ala-7-amino-4-methylcoumarin (Ac-WLA-AMC, Bachem, Bubendorf, Switzerland) for β5c, and acetyl-Ala-Asn-Trp-7-amino-4-methylcoumarin (Ac-ANW-AMC, Bachem, Bubendorf, Switzerland) for β5i. Progress of the reaction was measured using a BioTek Synergy HT microplate reader, monitoring fluorescence at 460 nm (excitation at 360 nm) for 60 min at 37 °C. The initial linear ranges were used to calculate the reaction velocity and determine the residual activity.
as §2

β1i subunit of human iCP = β1i subunit of human iCP (Homo sapiens, UniProt P28065+P40306); test: IC50 determination with subunit-specific fluorogenic substrate Ac-PAL-AMC; conditions: for IC50: IC50 β1i
Protocol: as §1, §2

β1i = conditions: in parentheses in Table S2; SI reference list; read-out: IC50 β1i, previously published data; cited from earlier work
β5c = conditions: in parentheses in Table S2; SI reference list; read-out: IC50 β5c, previously published data; cited from earlier work
β1c = conditions: in parentheses in Table S2, SI reference list, cited from earlier work
β5i = conditions: in parentheses in Table S2; SI reference list; read-out: IC50 β5i, previously published data; cited from earlier work
β2i = conditions: in parentheses in Table S2; SI reference list; read-out: IC50 β2i, previously published data; cited from earlier work
β2c = conditions: in parentheses in Table S2; SI reference list; read-out: IC50 β2c, previously published data; cited from earlier work
LPS-stimulated PBMCs = test: Cytokine secretion, Cytometric Bead Array; type: cell-based, human; conditions: 250 nM; 1 h pretreatment, LPS 1 μg/mL, 24 h; IL-1, IL-6, IL-8, IL-10, TNF-α
Protocol: PBMCs (1.5 × 10^6/mL) were plated in culture media in 96-well round-bottom plates. After a 60 min treatment with compounds at 37 °C and 5% CO2, cells were stimulated with LPS (Escherichia coli, O111:B4, 1 μg/mL, Sigma) for 24 h. Supernatants were then collected and analyzed for cytokine release by Human Inflammatory Cytokine Cytometric Bead Array (BD Biosciences, New Jersey, USA).

[3] = human iCP, mean of at least three experiments, NA: not active at 50 μM
[4] = human cCP, mean of at least three experiments, NA: not active at 50 μM
[5] = read-out: IC50 β1c, previously published data

SMILES	IC50 (β5i subunit of human iCP; [3])	IC50 (β5c subunit of human cCP; [4])	IC50 (β1c subunit of human cCP; [4])	IC50 (β2i subunit of human iCP)	IC50 (β1i subunit of human iCP; [3])	IC50 (β2c subunit of human cCP; [4])	further results
O=C(N[C@@H](Cc1ccccc1)C(=O)N[C@H](B(O)O)c1ccc(-c2ccccc2)cc1)c1cnccn1 [5h, ((R)-[1,1′-Biphenyl]-4-yl((S)-3-phenyl-2-(pyrazine-2-carboxamido)propanamido)methyl)boronic Acid]	24 nM	12 nM	1310 nM	260 nM	270 nM	–	solubility [1]: limited solubility; IC50 (β1c subunit of human cCP; own assay): > 1000 nM; IC50 for both β5 subunits, fold better than IC50 for β1i [2]: 10–20 fold; IC50 β2c (β2c subunit of human cCP; [4]): no detectable inhibition
O=C(N[C@@H](Cc1ccccc1)C(=O)N[C@H](B(O)O)c1ccc2c(c1)OCO2)c1cnccn1 [5g, ((R)-Benzo[d][1,3]dioxol-5-yl((S)-3-phenyl-2-(pyrazine-2-carboxamido)propanamido)methyl)boronic Acid]	18 nM	183 nM	315 nM	8600 nM	201 nM	45000 nM	IC50 for β5i, fold lower than for β1i, β1c, and β5c (β5i subunit of human iCP): 10 fold
COc1ccc(C[C@H](NC(=O)[C@H](C)NC(=O)CN2CCOCC2)C(=O)N[C@@H](CC2CCCC3CCCCC32)C(=O)[C@@]2(C)CO2)cc1 (stereo partly shown) [Lu-002i]	–	–	–	–	–	–	IC50 (β1i): > 100000 nM; IC50 (β5c): > 100000 nM; IC50 (β1c; [5]): > 100000 nM; IC50 (β5i): > 100000 nM
COc1ccc([C@H](NC(=O)[C@H](Cc2ccccc2)NC(=O)c2cnccn2)B(O)O)cc1 [5e, ((R)-(4-Methoxyphenyl)((S)-3-phenyl-2-(pyrazine-2-carboxamido)propanamido)methyl)boronic Acid]	15 nM	402 nM	1340 nM	10400 nM	40 nM	79000 nM	fold lower potency on the cCP counterparts of β1i and β5i [2]: 10–20 fold
COc1ccc(C[C@H](NC(=O)[C@H](C)NC(=O)CN2CCOCC2)C(=O)N[C@@H](Cc2ccccc2)C(=O)[C@@]2(C)CO2)cc1 [ONX-0914]	–	–	–	–	–	–	IC50 (β5c): 54 nM; IC50 (β2c): 1100 nM; Effect on secretion of cytokines in LPS-stimulated PBMCs (LPS-stimulated PBMCs): Very similar result; IC50 (β1c; [5]): > 10000 nM
CC(C)(C)ONC(=O)C[C@H](NC(=O)CCc1ccccc1)C(=O)N[C@@H](Cc1ccc(F)cc1)C(=O)NCc1cccc2ccccc12 [DPLG3]	–	–	–	–	–	–	IC50 (β1i): > 33300 nM; IC50 (β2i): > 33300 nM; IC50 (β2c): > 33300 nM; IC50 (β1c; [5]): > 33300 nM; IC50 (β1i subunit of human iCP; own assay): > 1000 nM; IC50 (β5i): 4.5 nM
O=C(N[C@@H](Cc1ccccc1)C(=O)N[C@H](B(O)O)c1ccc(F)cc1)c1cnccn1 [5c, ((R)-(4-Fluorophenyl)((S)-3-phenyl-2-(pyrazine-2-carboxamido)propanamido)methyl)boronic Acid]	32 nM	225 nM	526 nM	–	38 nM	–	Effect on secretion of cytokines in LPS-stimulated PBMCs (LPS-stimulated PBMCs): significantly diminished ability to affect cytokine release; fold lower potency on the cCP counterparts of β1i and β5i [2]: 10–20 fold
Cc1ccc([C@H](NC(=O)[C@H](Cc2ccccc2)NC(=O)c2cnccn2)B(O)O)cc1 [5b, ((R)-((S)-3-Phenyl-2-(pyrazine-2-carboxamido)propanamido)(p-tolyl)methyl)boronic Acid]	32 nM	712 nM	545 nM	9800 nM	42 nM	–	Effect on secretion of cytokines in LPS-stimulated PBMCs (LPS-stimulated PBMCs): significantly diminished ability to affect cytokine release; fold lower potency on the cCP counterparts of β1i and β5i [2]: 10–20 fold
O=C(N[C@@H](Cc1ccccc1)C(=O)N[C@H](B(O)O)C1CC1)c1cnccn1 [5k, ((R)-Cyclopropyl((S)-3-phenyl-2-(pyrazine-2-carboxamido)propanamido)methyl)boronic Acid]	9 nM	5 nM	827 nM	499 nM	172 nM	440 nM	fold lower potency on β1c and β1i ([2]; compared with bortezomib): approximately 80 fold
O=C(N[C@@H](Cc1ccccc1)C(=O)N[C@H](B(O)O)c1ccc(Cl)cc1)c1cnccn1 [5d, ((R)-(4-Chlorophenyl)((S)-3-phenyl-2-(pyrazine-2-carboxamido)propanamido)methyl)boronic Acid]	3 nM	114 nM	897 nM	74500 nM	17 nM	1850 nM	IC50 for β5i, fold lower than for β5c (β5i subunit of human iCP; β5i vs β5c): 30 fold; solubility [1]: limited solubility; IC50 for β1i, fold lower than for β1c (β1i subunit of human iCP; β1i vs β1c): 50 fold
O=C(N[C@@H](Cc1ccccc1)C(=O)N[C@H](B(O)O)c1ccccc1)c1cnccn1 [5a, ((R)-Phenyl((S)-3-Phenyl-2-(pyrazine-2-carboxamido)propanamido)methyl)boronic Acid]	220 nM	12800 nM	–	–	746 nM	–	–
O=C(N[C@@H](Cc1ccccc1)C(=O)N[C@@H](Cc1ccccc1)B(O)O)c1cnccn1 [5i, ((R)-2-Phenyl-1-((S)-3-phenyl-2-(pyrazine-2-carboxamido)propanamido)ethyl)boronic Acid]	17 nM	54 nM	235 nM	3400 nM	54 nM	4900 nM	–
CC[C@H](NC(=O)[C@H](Cc1ccccc1)NC(=O)c1cnccn1)B(O)O [5j, ((R)-1-((S)-3-phenyl-2-(pyrazine-2-carboxamido)propanamido)propyl)boronic Acid]	19 nM	11 nM	21 nM	1280 nM	2 nM	3400 nM	–
CCOC(=O)c1cccc([C@H](NC(=O)[C@H](Cc2ccccc2)NC(=O)c2cnccn2)B(O)O)c1 [5f, ((R)-(3-(Ethoxycarbonyl)phenyl)((S)-3-phenyl-2-(pyrazine-2-carboxamido)propanamido)methyl)boronic Acid]	1300 nM	3300 nM	–	–	22400 nM	–	–
CC(C)C[C@H](NC(=O)[C@H](CCc1ccccc1)NC(=O)CN1CCOCC1)C(=O)N[C@@H](Cc1ccccc1)C(=O)N[C@@H](CC(C)C)C(=O)[C@@]1(C)CO1 [carfilzomib]	–	–	–	–	–	–	IC50 (β1c; read-out: IC50 β1c, literature data): 13 nM

The next lines start with results.

IC50 (β5i subunit of human iCP; [3])	IC50 (β5c subunit of human cCP; [4])	IC50 (β1c subunit of human cCP; [4])	IC50 (β2i subunit of human iCP)	IC50 (β1i subunit of human iCP; [3])	IC50 (β2c subunit of human cCP; [4])	SMILES	further results
–	–	–	338 ± 122 nM	–	–	COc1ccc([C@@H](O)[C@H](NC(=O)[C@H](C)NC(=O)CN2CCOCC2)C(=O)N[C@@H](CC2=CCCC2)C(=O)[C@@]2(C)CO2)cc1 [KZR-616, (2S,3R)-N-((S)-3-(Cyclopent-1-En-1-Yl)-1-((R)-2-Methyloxiran-2-yl)-1-Oxopropan-2-yl)-3-Hydroxy-3-(4-Methoxyphenyl)-2-((S)-2-(2-Morpholinoacetamido)Propanamido)Propenamide, reference compound]	IC50 (β1i): 131 nM; IC50 (β5c): 688 nM; IC50 (β5i subunit of human iCP; own assay): 26 ± 21 nM; IC50 (β2i): 623 nM; IC50 (β2c): 604 nM; IC50 (β5c subunit of human cCP; own assay): 426 ± 48 nM; IC50 (β1c subunit of human cCP; own assay): > 1000 nM; Effect on secretion of cytokines in LPS-stimulated PBMCs (LPS-stimulated PBMCs): reduced the secretion of IL-1, IL-6, IL-8, IL-10, and TNF-α to a significant degree; IC50 (β1c; [5]): > 10600 nM; IC50 (β2c subunit of human cCP; own assay): 403 ± 151 nM; IC50 (β1i subunit of human iCP; own assay): 96 ± 32 nM; IC50 (β5i): 39 nM
–	–	–	> 1000 nM	–	–	CC(C)C[C@H](NC(=O)C(C)(C)NC(=O)c1ccccc1C(F)(F)F)B(O)O [ML604440, reference compound]	IC50 (β1i): ~12.5 nM and 12.5 nM; IC50 (β5c): > 1000 nM; IC50 (β5i subunit of human iCP; own assay): > 1000 nM; IC50 (β5c subunit of human cCP; own assay): > 1000 nM; IC50 (β1c subunit of human cCP; own assay): > 1000 nM; IC50 (β2c subunit of human cCP; own assay): > 1000 nM; IC50 (β1i subunit of human iCP; own assay): 8 ± 5 nM; IC50 (β5i): > 1000 nM
–	–	–	> 1000 nM	–	–	C[C@]1(C(=O)[C@H](Cc2ccccc2)NC(=O)[C@H](CO)NC(=O)c2cccc(=O)[nH]2)CO1 [KZR-504]	IC50 (β1i): 51 nM; IC50 (β5c): 6900 nM; IC50 (β2i): > 250000 nM; IC50 (β2c): > 250000 nM; IC50 (β2c subunit of human cCP; own assay): > 1000 nM; IC50 (β1i subunit of human iCP; own assay): 59 ± 11 nM; IC50 (β5i): 4300 nM
